The record followed here is patent publication US20030220373A1, “Therapeutic uses of PPAR mediators” (priority 2000, published 2003).

Structures are written as SMILES.

The test system of series [1] is ABC1 expression. Briefly: ABC1 up-regulation in human primary hepatocytes (RNA analysis). In kind it is cell-based. Particulars: human primary hepatocytes (FIG. 4). The procedure:
Assay Example 2: ABC 1 Up-regulation in Human Hepatocytes and Human Macrophages Derived Monocytes by Fenofibric Acid, and for Wy 14,643 and Related Cholesterol Efflux in Macrophages Human liver specimens are collected from healthy multiorgan donors for transplantation who died after severe traumatic brain injury. Hepatocytes are obtained by a two-step collagenase perfusion (REF). Cells are resuspended in minimal essential medium with Earl's salts with 10% FCS, 2 mM glutamine, […] gentamycin, seeded at density of 1.5×10^5 cells/cm^2 in plastic culture dishes coated with 20 mg rat tail collagene type I (Sigma).Medium is renewed after 4 hours of adhesion. After 20 hours the medium is discarded and differents compounds added at the indicated concentrations in serum-free medium. Total cellular RNA is extracted from differentated macrophages treated for 6 hours with different compounds using the RNA plus kit (Bioprobe System, Montreuil, france). RNA from human hepatocytes are prepared as described by Chomczynski and Sacchi. For RT-PCR analysis, total RNA is reverse transcribed using random hexamer primers and Superscript reverse transcriptase (Life Technologies) as sebsequently amplified by PCR. The resulting products are separated on a 1% agrose gel and stained with ethidium bromide.

Series [2] concerns ABC1 expression. Briefly: ABC1 up-regulation in human THP-1 cells by PPAR mediators (Northern blotting; also quantitative PCR Taqman). As to conditions: for up-regulation of ABC1 expression: treatment at 1 and 10 μM, Northern blotting (FIG. 1, FIG. 2). The format is cell-based. Here is the method:
THP-1 cells, a human monocytic cell line, are maintained in RPMI with 10% FCS (fetal calf serum)/[…] gentamycin/25 mM Hepes. Cells are plated at approximately 1×10^5 per cm^2 in RPMI/10% charcoal-stripped FCS (Hyclone) the presence or absence of 100 ng/ml PMA (phorbol myritic acid)(Gibco BRL) and the indicated concentrations of test compound or DMSO (dimethyl sulfoxide). Test compounds are refreshed daily. Alternatively, cells are incubated with […] AcLDL (acetylated LDL) as positive control. After 48 or 72 hours, cellular RNA is isolated with Trizol® (Gibco) according to the manufacturer's instructions. Total RNA ([…]) is subjected to Northern blotting. The fragment used as a probe is a 431bp PCR product of ABC1 corresponding to nucleotides (nt's) 3306-3737 of Genbank Ace # AJ012376 (T. Langmann et al,1999, BBRC 257, 29-33). The sequences of the primers usd to generate the fragment are: […] nt. pos 3306-3326 (forward); […] nt. pos 3737-3711 (reverse). Blots are hybridized with this probe labelled with [a32P]dCTP (Amersham) with ExpressHyb® (Clontech, Palo Alto Calif.) according to manufacturer's protocol, washed, and exposed to X-ray film. Resulting signals are quantitated by densitometry.
A representative example of a Northern blotting analysis is represented in FIG. 1 and corresponding graph bar in FIG. 2.

A word on the melting point: it is the temperature of the solid-liquid transition. On to `c1cc(OCc2cccc(-c3nnn[nH]3)c2)cc(OCc2ccc3ccccc3n2)c1` [Example 28, 5-(3-(3-(2-quinolinylmethyloxy)phenoxymethyl)phenyl)tetrazole], for which the melting point is 115 °C (dec.).
The same measure, in the same setting: next, `c1cc(OCc2ccc3ccccc3n2)cc(OCc2ccccc2-c2nnn[nH]2)c1` [Example 28, 5-(2-(3-(2-quinolinylmethyloxy)phenoxymethyl)phenyl)tetrazole]: 166 to 170 °C.
Take `Cc1cccc(Nc2cc(Cl)nc(SCC(=O)O)n2)c1C` [Wy 14,643, pyrinixic acid]: the ABC1 up-regulation result with ABC1 expression [1] is on record as “ABC1 up-regulation”.
Compound `c1cc(OCc2ccc3ccccc3n2)cc(OCc2ccccc2Cc2nnn[nH]2)c1` [Example 28, 5-(2-(3-(2-quinolinylmethyloxy)phenoxymethyl)benzyl)tetrazole] gave a melting point of 145.5 to 147 °C.
Same read-out and setting: next, `N#Cc1cccc(OCc2cccc(OCc3ccc4ccccc4n3)c2)c1` [Example 7, 3-[3-(2-quinolinylmethyloxy)benzyloxy]benzonitrile]: 86 to 87 °C.
On to `Cc1cc(OCc2ccccc2)cc(OCc2cccc(OCc3ccc4ccccc4n3)c2)c1C(=O)O` [RPR64], for which, in the series with ABC1 expression [2], the “up-regulation of ABC1 expression” value is “up-regulation of ABC1 expression”.
Regarding `O=C(O)c1cccc(COc2cccc(OCc3ccc4ccccc4n3)c2)c1` [Example 20, 3-(3-(2-quinolinylmethyloxy)phenoxymethyl)-benzoic acid], the melting point fell in the range of 149 to 151 °C.
On the same count and under the same terms, the value for `c1ccc2nc(COc3ccc(COc4ccc(Cc5nnn[nH]5)cc4)cc3)ccc2c1` [Example 12, 5-[4(4-(2-quinolinylmethyloxy)benzyloxy)benzyl]tetrazole] was 179 to 181 °C.
In turn, `c1ccc2nc(COc3ccc(COc4ccc(-c5nnn[nH]5)cc4)cc3)ccc2c1` [Example 11, 5-[4-(4-(2-quinolinylmethyloxy)benzyloxy)phenyl]tetrazole] registered a melting point of 210 to 213 °C.
On the same count and under the same terms, next, `c1cc(OCc2ccc(Cc3nnn[nH]3)cc2)cc(OCc2ccc3ccccc3n2)c1` [Example 28, 5-(4-(3-(2-quinolinylmethyloxy)phenoxymethyl)benzyl)tetrazole]: 149 to 151 °C.
Still for that read-out and setting: the value for `c1cc(COc2cccc(-c3nnn[nH]3)c2)cc(OCc2ccc3ccccc3n2)c1` [Example 10, 5-[3-(3-(2-quinolinylmethyloxy)benzyloxy)-phenyl]tetrazole] was 169 to 172 °C; that for `COC(=O)c1cccc(COc2cccc(OCc3ccc4ccccc4n3)c2)c1` [Example 19, methyl 3-(3-(2-quinolinylmethyloxy)phenoxymethyl)benzoate] was 93 to 94 °C; that for `COc1cc(C(=O)O)ccc1OCc1cccc(OCc2ccc3ccccc3n2)c1` [Example 15, 3-methoxy-4-(3-(2-quinolinylmethyloxy)benzyloxy)benzoic acid] was 188 to 190 °C.
On the same count and under the same terms, next, `c1cc(COc2ccc(OCc3ccc4ccccc4n3)cc2)cc(OCc2nnn[nH]2)c1` [Example 32, 5-(3-(4-(2-quinolinylmethyloxy)phenoxymethyl)phenoxymethyl)tetrazole]: 131 to 132 °C; `COC(=O)c1ccc(OCc2cccc(OCc3ccc4ccccc4n3)c2)c(OC)c1` [Example 14, methyl 3-methoxy-4-(3-(2-quinolinylmethyloxy)benzyloxy)-benzoate]: 100 to 101 °C.
On to `c1ccc(Cc2nnn[nH]2)c(COc2ccc(OCc3ccc4ccccc4n3)cc2)c1` [compound of formula VI, 5-[2-(4-(2-quinolinylmethoxy)phenoxymethyl)benzyl]tetrazole], for which, in the series with ABC1 expression [2] (relative to DMSO), the “increase in up-regulation of ABC 1 expression relative to treatment with DMSO” value is listed as “fourteen fold increase”.
As for `Cc1cccc(COc2cccc(OCc3ccc4ccccc4n3)c2)c1C(=O)O` [RPR52], in the series with ABC1 expression [2], the “up-regulation of ABC1 expression” value is on record as “up-regulation of ABC1 expression”.
